Source: publication PMC7920280, “The Multi-Targeting Ligand ST-2223 with Histamine H3 Receptor and Dopamine D2/D3 Receptor Antagonist Properties Mitigates Autism-Like Repetitive Behaviors and Brain Oxidative Stress in Mice” (International Journal of Molecular Sciences, 2021)

What was measured:
Type in all cases: in vivo
[1] = system: catalase (CAT); experiment: Catalase (CAT) activity in brain parts of treated BTBR mice; settings: i.p., ST-2223 5 mg/kg, RAM 10 mg/kg, ARP 1 mg/kg, MEM 5 mg/kg, mean ± SEM; for CAT, Prefrontal Cortex: n = 3-6, BTBR vehicle 80.1 ± 14.9; for CAT, Striatum: n = 3-6, BTBR vehicle 104.6 ± 2.28; for CAT, Hippocampus: n = 3-6, BTBR vehicle 111.4 ± 4.8; for CAT, Cerebellum: n = 3-6, BTBR vehicle 130. 7 ± 3.3
Procedure: (§1) At the end of the behavioral assessments, the animals were sacrificed following previously published protocols. Animals were anesthetized with pentobarbital (40 mg/kg, body weight, i.p.), sacrificed, and perfused via intracardial infusion to wash out the blood, using 1× PBS (0.01 M phosphate buffer, 0.0027 M potassium chloride and 0.137 M sodium chloride) at pH 7.4. […] The brains were then quickly removed and placed on an ice plate. The cerebellum, hippocampus, prefrontal and striatum were excised from the brain and snap-frozen in liquid nitrogen for further use in biochemical assessments. On the day of the biochemical tests, the tissues were homogenized using radioimmunoprecipitation assay (RIPA) buffer (50 mM Tris HCl, pH 7.4, 140 mM NaCl, 1 mM EDTA, 0.5% Triton X-100 and 0.5% sodium deoxycholate) supplemented with protease and phosphatase inhibitors. Then, the homogenates were centrifuged at 14,000 rpm for 30 min (4 °C), and the supernatant was used for evaluation of lipid peroxidation, glutathione, and antioxidant enzymes using spectrophotometric measurements and enzyme-linked immunosorbent assays (ELISA)..
(§2) To assess the activity of antioxidant enzymes Superoxide dismutase (SOD) and Catalase (CAT), commercially available kits were used, following the manufacturer’s instructions, and as previously reported. Cayman assay kits (Cayman Chemicals Company, Ann Arbor, MI, USA) were used to assess antioxidant enzyme (superoxide dismutase (SOD) and catalase (CAT)) activities in experimental animals. Catalase assay: Twenty microliters of samples or standards and 30 μL of methanol was added to the assay buffer (100 μL) in 96-well plates. To this mixture, twenty microliter of hydrogen peroxide was added and incubated for 20 min at room temperature (RT) to initiate the reaction. Following incubation, 30 μL of potassium hydroxide was used to terminate the reaction, followed by subsequent addition of catalase purpald (30 μL) and catalase potassium periodate (10 μL). The plate was incubated for 5 min at room temperature in a shaker and the plate was read at 540 nm using a microplate reader. Catalase activity was expressed as nmol/min/mg protein. Superoxide dismutase assay: ten microliters of sample or standard was added in 96-well plates. Twenty microliters of xanthine oxidase were added to initiate the reaction. The reaction mixture was mixed for few seconds and incubated (covered) for 30 min at room temperature (RT). Absorbance was read at 450 nm using microplate reader. The activity of SOD was expressed as units/mg protein.

[2] = system: BTBR and B6 mice; experiment: Self-grooming paradigm (SGP); settings: for time spent self-grooming vs vehicle-treated B6 mice / time spent self-grooming vs vehicle-treated BTBR mice: i.p., MEM 5 mg/kg, ARP 1 mg/kg; for time spent self-grooming vs vehicle-treated B6 mice: ST-2223 2.5, 5 and 10 mg/kg; for time spent self-grooming vs vehicle-treated BTBR mice: ST-2223 5 and 10 mg/kg
Procedure: (§3) The drugs tested included ST-2223 [N-(4-(4-(2-methoxyphenyl)piperazin-1-yl)butyl)-6-(3-(piperidin-1-yl)propoxy)-2-naphthamide] that was designed and synthesized in the Institute of Pharmaceutical and Medicinal Chemistry, Heinrich Heine University Düsseldorf, Germany, and in accordance with previously described methodologies (Supplementary Materials). Aripiprazole (ARP) (1 mg/kg, i.p.) and memantine (MEM, 5 mg/kg, i.p.), as reference drugs, were purchased from Sigma-Aldrich (St. Louis, MO, USA). The CNS-penetrant H3R agonist (R)-α-methylhistamine (RAM, 10 mg/kg, i.p.) was purchased from Sigma-Aldrich, St. Louis, MO, USA. T. Protease and the phosphatase inhibitor cocktail were procured from Thermo Scientific, USA. The assay kit for reduced glutathione (GSH) was obtained from Sigma-Aldrich (St. Louis, MO, USA). The lipid peroxidation assay kit for estimation of malondialdehyde (MDA) was purchased from North West Life Science (Vancouver, WA, USA). The assay kits for superoxide dismutase (SOD) and catalase (CAT) were purchased from Cayman Chemical (Ann Arbor, MI, USA). The drugs were prepared daily using 1% dimethyl sulfoxide (DMSO) in 0.9% saline, for intraperitoneal (i.p.) administration at a volume of 10 mL/kg of body weight. Vehicle treatment consisted of 1% DMSO in 0.9% normal saline. All drugs were i.p. administered 30 min before the behavioral test. The doses of these drugs were chosen based on previous reports. Neurobehavioral assessment was performed blindly with respect to experimental group and drug administration.
In the SGP test, mice were scored for spontaneous grooming behaviors. […] To measure SGP, each mouse was placed individually in a standard clear plastic cage (28 cm wide × 17 cm long × 12 cm high) for a total of 20 min. Mice were allowed to freely explore the cage for the entire test, the first 10 min served as a habituation period. After 10 min habituation, each mouse was scored with a stopwatch for 10 min for cumulative time spent grooming all body regions. Grooming behavior included head washing, body grooming, genital/tail grooming and paw and leg licking. The observer sat approximately 1 m from the test cage during the second 10 min of testing.

[3] = system: superoxide dismutase (SOD); experiment: Superoxide dismutase (SOD) activity in brain parts of treated BTBR mice; settings: i.p., ST-2223 5 mg/kg, RAM 10 mg/kg, ARP 1 mg/kg, MEM 5 mg/kg, mean ± SEM; for SOD, Prefrontal Cortex: n = 3-6, BTBR vehicle 45.1 ± 2.8; for SOD, Hippocampus: n = 3-6, BTBR vehicle 49.5 ± 0.5; for SOD, Cerebellum: n = 3-6, BTBR vehicle 49.7 ± 1.3; for SOD, Striatum: n = 3-6, BTBR vehicle 51.8 ± 1.2
Procedure: as §1, §2

[4] = system: BTBR and B6 mice; experiment: Spontaneous alternation behavior (SAB), Y maze; settings: i.p., ST-2223 2.5, 5 and 10 mg/kg, MEM 5 mg/kg, ARP 1 mg/kg
Procedure: as §3
The SAB test is based on the exploratory strategy of rodents to explore a new environment. In examining repetitive behaviors, the Y maze test took advantage of the rodents’ natural tendency to spontaneously alternate or choose a different arm of the maze instead of the one they visited on their previous entry (i.e., least recently visited arm). A decrease in the percentage alternation can also be attributed to same arm repeated visits. Spontaneous alternation behavior was measured on a Y maze apparatus, as previously described, with slight modifications. The Y maze composed of three arms (30 cm × 6 cm × 15 cm), where the arms were labeled with letters: A, B, or C. The test mouse was placed in the center of the maze and was allowed to freely explore the maze for 8 min. The number of entries into each arm and the total number of entries were recorded by the observer. A spontaneous alternation was defined as successive entry into three arms on an overlapping triplet set. Percentage spontaneous alternation was calculated as the number of spontaneous alternations (actual alternations) over the total number of entries (possible alternations). Two arm entries were subtracted from the denominator because an alternation required at least 3 entries. The apparatus was cleaned with 70% alcohol solution after each mouse was tested. (1) Percentage spontaneous alternations=Total alternations/(Total arm entries − 2) ×100

Row | Compound | CAT, Prefrontal Cortex [1] [nmol/min/mg protein] | CAT, Striatum [1] [nmol/min/mg protein] | CAT, Hippocampus [1] [nmol/min/mg protein] | CAT, Cerebellum [1] [nmol/min/mg protein] | time spent self-grooming vs vehicle-treated B6 mice [2] | SOD, Prefrontal Cortex [3] [units/mg protein] | SOD, Hippocampus [3] [units/mg protein] | SOD, Cerebellum [3] [units/mg protein] | SOD, Striatum [3] [units/mg protein] | percentage of spontaneous alternation vs vehicle-treated B6 mice [4] | percentage of spontaneous alternation vs vehicle-treated BTBR mice [4] | time spent self-grooming vs vehicle-treated BTBR mice ([2]; BTBR mice) | self-grooming behavior vs vehicle-treated BTBR mice ([2]; BTBR mice, ST-2223 2.5 mg/kg i.p.)
1 | O=C1CCc2ccc(OCCCCN3CCN(c4cccc(Cl)c4Cl)CC3)cc2N1 [ARP, aripiprazole] | 96.2 ± 1.3 | 120.5 ± 10.1 | 118.3 ± 6.5 | 159.2 ± 5.1 | did not alter | 54.0 ± 5.2 | 51.8 ± 2.0 | 56.4 ± 1.1 | 65.7 ± 7.7 | did not alter | failed to significantly mitigate |  | 
2 | CC12CC3CC(C)(C1)CC(N)(C3)C2 [MEM, memantine] | 94.1 ± 4.8 | 108.1 ± 3.4 | 114.3 ± 11.2 | 132.3 ± 4.5 | significantly reduced | 44.9 ± 2.2 | 41.4 ± 3.4 | 64.4 ± 3.1 | 66.47 ± 4.4 | did not alter | significantly increased | significantly reduced | 
3 | COc1ccccc1N1CCN(CCCCNC(=O)c2ccc3cc(OCCCN4CCCCC4)ccc3c2)CC1 [ST-2223, N-(4-(4-(2-methoxyphenyl)piperazin-1-yl)butyl)-6-(3-(piperidin-1-yl)propoxy)-2-naphthamide] | 116.8 ± 5.3 | 119.1 ± 3.7 | 173.0 ± 1.9 | 120.6 ± 8.8 | did not alter | 43.2 ± 3.4 | 48.1 ± 4.2 | 64.3 ± 1.0 | 51.2 ± 7.7 | did not alter | significantly increased | significantly, and dose-dependently, decreased | failed to significantly mitigate
